# Laboratory results: patent US8906925B2, “Pyrido[4,3-B]indoles containing rigid moieties” (Medivation Technologies, Inc., priority 2008, dated 2014)
# Values joined by “and” are separate entries in the source; they are usually repeats but may differ in a detail not shown here. Identical values can stand only once.
# Key:
# [1] = molecular target: T1, human recombinant serotonin 5-HT7 receptor (Homo sapiens, UniProt P34969); assay: 5-HT7 antagonist functional assay (cAMP, HTRF, CHO cells); assay type: cell-based; conditions: vs 100 nM 5-HT
# T1 construct: expressed in transfected cells; host or cells: CHO cells
# Text: To determine for agonist or antagonist activity of compounds of the invention in functional assays, human recombinant serotonin 5-HT2A receptor expressed in human embryonic kidney (HEK-293) cells (Jerman J C, Brough S J, Gager T, Wood M, Coldwell M C, Smart D and Middlemiss D N, Eur J Pharmacol, 414: 23-30, 2001) or human recombinant serotonin 5-HT7 receptor expressed in CHO cells (Adham, et al. J. Pharmacol. Exp. Ther. 287:508-514, 1998) was used. Cells were suspended in DMEM buffer, and distributed in microplates. For the 5-HT2A assay, a cytoplasmic calcium fluorescent indicator which varies proportionally to the free cytosolic Ca^2+ ion concentration was mixed with probenicid in HBSS buffer complemented with 20 mM Hepes (pH 7.4), added into each well and equilibrated with the cells for 30 min. at 37° C. followed by 30 min. at 22° C. For the 5-HT7 assay, the reaction product was cAMP, detected by HTRF.
# The standard reference antagonist was ketanserin (5-HT2A) or mesulergine (5-HT7), which was tested in each experiment at several concentrations to generate a concentration-response curve from which its IC50 value was calculated. Compounds were screened at […] or lower, using DMSO as vehicle.
# [2] = system: Sprague-Dawley rats; assay: Two-trial novel object recognition in scopolamine treated rats; assay type: in vivo, rat; conditions: 0.3 mg/kg
# Procedure: Ennaceur, A., and Delacour, J. (1988), Behav. Brain Res. 31:47-59. […] See, e.g., Scali, C., et al., (1994), Neurosci. Letts. […] 53:277-283.
# Male Sprague-Dawley rats between six and seven weeks old, weighing between 220-300 grams are obtained from Centre d'Elevage (Rue Janvier, B. P. 55, Le Genest-Saint-Isle 53940, France). The animals are housed in groups of 2 to 4 in polypropylene cages (with a floor area of 1032 cm^2) under standard conditions: at RT (22±2° C.), under a 12 h light/12 h dark cycle, with food and water provided ad libitum.
# The experimental arena is a square wooden box (60 cm×60 cm×40 cm) painted dark blue, with 15 cm×15 cm black squares under a clear plexiglass floor. The arena and objects placed inside the arena are cleaned with water between each trial to eliminate any odor trails left by rats. […]
# Novel object recognition test is comprised of two trials separated by an interval of 120 min. or 24 hours. […] The time required for each animal to complete 15 seconds of object exploration is determined, with a cut-off time of four min. […] Rats are placed back in the arena for three min., and exploration of both objects is determined. Locomotor activity of rats (number of times rats cross grid lines visible under the clear plexiglass floor) is scored for during T1 and T2. […]
# Recognition scores and % of good learners for compounds of the invention are determined.
# [3] = system: C57Bl/6J mice; assay: Elevated plus maze (EPM) test; assay type: in vivo, mouse; conditions: 0.03, 0.1, and 1 mg/kg, oral
# Text: This study aimed to test the anxiolytic properties of Compound No. 90 using the elevated plus maze (EPM) test in C57Bl/6J mice.
# Male C57Bl/6J mice from Jackson Laboratories (Bar Harbor, Me.) were used for the […]. Mice were received at 6-weeks of age. Upon receipt, mice were assigned unique identification numbers (tail marked) and were group housed with 4 mice/cage in OPTI mouse ventilated cages. All animals remained housed in groups of four during the remainder of the study. All mice were acclimated to the colony room for approximately 2 week prior to testing and were subsequently tested at an average age of 8 weeks of age. During the period of acclimation, mice and rats were examined on a regular basis, handled, and weighed to assure adequate health and suitability. Animals were maintained on a 12 h/12 h light/dark cycle. The room temperature was maintained between 20 and 23° C. with a relative humidity maintained between 30% and 70%. Chow and water were provided ad libitum for the duration of the study. In each test, animals were randomly assigned across treatment groups. […]
# The elevated plus maze test assessed anxiety. […] The time spent, distance traveled and entries in each arm were automatically recorded by the computer. […]
# Data were analyzed using analysis of variance (ANOVA) followed by Fisher's LSD post hoc analysis when appropriate. […]
# T1 sequence (P34969 whole entry): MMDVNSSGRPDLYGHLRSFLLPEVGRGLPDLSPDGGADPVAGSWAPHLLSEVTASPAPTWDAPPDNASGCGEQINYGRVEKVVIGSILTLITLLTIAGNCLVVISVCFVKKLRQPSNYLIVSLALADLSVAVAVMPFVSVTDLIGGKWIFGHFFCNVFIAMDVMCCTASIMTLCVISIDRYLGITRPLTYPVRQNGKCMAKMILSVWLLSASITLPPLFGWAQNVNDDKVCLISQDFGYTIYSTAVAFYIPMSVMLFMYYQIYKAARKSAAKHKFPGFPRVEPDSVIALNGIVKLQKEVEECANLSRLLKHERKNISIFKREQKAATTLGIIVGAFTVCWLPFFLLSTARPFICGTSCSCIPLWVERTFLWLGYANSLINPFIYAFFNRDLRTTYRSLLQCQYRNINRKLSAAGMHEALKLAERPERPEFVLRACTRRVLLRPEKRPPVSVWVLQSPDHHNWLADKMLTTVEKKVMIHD
IC50 [1],Structure (SMILES),activity in object recognition in the presence of scopolamine [2],anxiolytic-like effect in the EPM test compared to vehicle [3]
460 nM and 770 nM,"C/C(=C\n1c2c(c3cc(Cl)ccc31)CN(C)CC2)c1ccc(F)cc1 [Compound 83, (E)-8-chloro-5-(2-(4-fluorophenyl)prop-1-enyl)-2,3,4,5-tetrahydro-2-methyl-1H-pyrido[4,3-b]indole]",,
,"C/C(=C\n1c2c(c3cc(Cl)ccc31)CN(C)CC2)c1ccncc1 [Compound 90, (E)-8-chloro-2,3,4,5-tetrahydro-2-methyl-5-(2-(pyridin-4-yl)prop-1-enyl)-1H-pyrido[4,3-b]indole]",activity,did not exert any anxiolytic-like effect
